Laboratory results published in doi:10.1101/2024.09.11.612517v1 (bioRxiv, 2024).
Square brackets hold non-standard residues; d marks the D form. Peptide text beside a SMILES is read from it.

What was measured:
[1] = system: VEGF-induced retinal vascular permeability; format: in vivo, Wistar rats; conditions: rats, single 0.5% eye drop at different times before intravitreal VEGF
[2] = Ocular pharmacokinetics after one eye drop, rats; format: in vivo, Wistar rats; conditions: 3 hours post-dose
[3] = Ocular pharmacokinetics after one eye drop, rabbits; format: in vivo, New Zealand white rabbits
[4] = NZ rabbits, single eyedrop of 0.5%, mean ± SEM, N = 3 eyes per timepoint, SEM
[5] = rabbits, single 0.5% eye drop, 24 hours

CC[C@@H](C)[C@H]1NC(=O)[C@@H]([C@H](C)O)NC(=O)[C@@H](Cc2c[nH]cn2)NC(=O)CNC(=O)[C@@H](CCCNC(=N)N)NC(=O)CNC(=O)[C@@H](Cc2ccccc2)NC1=O [VIAN-c4551] (cyclo([dI][dF]G[dR]G[dH][dT]))
Duration of protective effect against VEGF challenge after the eye drop [1]: 24 h | Concentration in the vitreous (molar) [2]: ~0.391 µM | AUC0-24h, Retina-Choroid [3, 4]: 467,434 ± 45,884 hours × ng g^-1 | AUC0-24h, Vitreous [3, 4]: 1,678 ± 182 hours × ng mL^-1 | Cmax, Retina-Choroid [3, 4]: 51,693.81 ± 6678.9 ng g^-1 | Retina-choroid exposure at 24 hours above IC50 ([3]; rabbits, 24 hours, vs IC50 for endothelial permeability): > 4 orders of magnitude | Cmax in retina-choroid (molar) ([3]; rabbits, single 0.5% eye drop): ~67 µM | Retina/choroid Cmax above IC50 (137.3 pM) ([3]; rabbits, single 0.5% eye drop): 5 orders of magnitude | Cmax in retina-choroid ([3]; rabbits, single 0.5% eye drop (50 µL), HUVEC bioactivity read-out): 52 µg/g | Exposure in retina-choroid after 24 hours [3, 5]: 3.5 µg/g | Exposure in retina-choroid after 24 hours (molar) [3, 5]: ~4.64 µM | Exposure in vitreous after 24 hours [3, 5]: 10.6 ng/mL | Exposure in vitreous after 24 hours (molar) [3, 5]: ~13.88 nM | Time for which high retina-choroid levels lasted ([3]; rabbits, single topical instillation of 0.5%): 24 h
